Measured values reported in patent US7345091B2, “Carotenoid ether analogs or derivatives for the inhibition and amelioration of disease” (Cardax Pharmaceuticals, Inc., priority 2002, dated 2008).

What was measured:
[1] = Source text: FIG. 27 and FIG. 28 depict the results of spectral analysis after flash photolysis of the formation of triplet and carotenoid cation radical states for non-esterified, free astaxanthin 2E and the diacid disuccinate astaxanthin derivative XV were obtained. Formation of the carotenoid cation radical is a measure of the potential biophysical behavior of the novel derivative as an antioxidant. If a derivative retains the antioxidant behavior of non-esterified, free astaxanthin, then all previously documented (i.e. literature precedent) therapeutic applications for astaxanthin can be reasonably assumed for the novel derivative, including at least singlet oxygen quenching, lipid peroxidation chain-breaking, and/or direct radical scavenging.
In this experiment, nitronaftalin (NN) was used as the photosensitizer. After irradiation, the excited sensitizer (NN*) forms a sensitizer triplet (^3NN). When ^3NN encounters a carotenoid, energy and electron transfer reactions with ^3NN take place. The resulting relatively stable ^3car and carotenoid cation radicals (car*^+) are detected by characteristic absorption bands. Non-polar solvents (e.g. hexane) favor the formation of ^3car, and more polar solvents (alcohols, water) favor the formation of the car.^+. The anion radical of the sensitizer (NN.^−) is not typically seen because of a low absorption coefficient.
The ^3car decays rather quickly. After 15 μs, half of the ^3car has disappeared, and after 50 μs, no ^3car is left.
The spectrum of asta 2E is nearly identical to that of astaCOOH XV. After 50 μs, the ^3car has disappeared. During this time frame, the car.^+ is stable. Negative and positive peaks in the absorption spectra for astaCOOH XV and asta 2E are superimposable.

[2] = tested on: C3H10T1/2 cell culture model; test: Inhibition of MCA-induced neoplastic transformation; assay type: cell-based, mouse; settings: for percent reduction of MCA-induced neoplastic transformation: 3×10^-6 M in THF
Description: Non-esterified, free astaxanthin 2E is generated in the mammalian gut after oral administration of esterified astaxanthin. Only free astaxanthin is found in mammalian plasma and solid organs. […] Inherent esterase activity of serum albumin, and the action of promiscuous esterases in serum and solid organs rapidly generates non-esterified, free astaxanthin after parenteral administration of the disodium disuccinate astaxanthin derivative (XVI). […] An experiment was performed to assess the ability of non-esterified, free astaxanthin (the in vivo final cleavage product of the disodium salt disuccinate astaxanthin derivative (XVI), tested as the all-trans mixture of stereoisomers 3S,3′S, meso, and 3R,3′R in a 1:2:1 ratio) to inhibit neoplastic transformation in the C3H10T1/2 cell culture model developed in the lab of the late Charles Heidelberger (Reznikoff, 1973).
This experiment was conducted according to protocols established previously (Bertram, 1991 and Pung, 1988). In brief, the 10T1/2 cells, derived from mouse embryonic fibroblasts, were seeded at a density of 10^3 cells/60 mm dish in Eagle's Basal Media (BME) (Atlanta Biologicals, Atlanta, Ga.), supplemented with 4% fetal calf serum (Atlanta Biologicals, Atlanta, Ga.) and 25 μg/mL gentamicin sulfate (Sigma, St. Louis, Mo.). Cells were treated 24 hours later with 5.0 μg/ml MCA (Sigma, St. Louis, Mo.) in acetone or with 0.5% acetone (final concentration) as a control. Media was changed 24 hours after MCA treatment. Cells were treated with astaxanthin in THF or with retinol acetate in acetone 7 days later, and re-treated every 7 days for 4 weeks. Other dishes were treated with the appropriate solvent controls. After 5 weeks from the start of the experiment, cells were fixed with methanol and stained with 10% Giemsa stain (Sigma, St. Louis, Mo.) and scored for type II and type III foci as per Reznikoff (1973).

superoxide anion = test: Superoxide anion scavenging by EPR (DEPMPO spin trap) in phorbol ester-stimulated isolated neutrophils; assay type: cell-based, human; settings: Homo sapiens, Neutrophil, Solvent DMSO, 0.1 mM; read-out: Mean (% inhibition) of superoxide anion signal
Description: In an experiment, neutrophils were isolated on a Percoll gradient from whole blood from a human volunteer. The isolated neutrophils were then re-suspended in phosphate-buffered saline, and maximally stimulated with phorbol ester to induce the respiratory burst and production of superoxide anion. To the solution of activated human neutrophils, the disodium salt disuccinate astaxanthin derivative XVI was added at various concentrations, and the superoxide signal [as measured with electron paramagnetic resonance (EPR) spectroscopy] was subsequently measured. […] The disodium salt disuccinate astaxanthin derivative XVI tested at 100 μM scavenged 28% of the total signal. At 3 mM, almost no superoxide signal remained. […] In addition to reducing the superoxide anion signal important in ischemia-reperfusion injury, it is also likely that myocardial salvage can be achieved with the described carotenoid derivative, as superoxide anion plays a major role in tissue injury and death during prolonged myocardial ischemia. In a third experiment, neutrophils were again isolated on a Percoll gradient from whole blood from a second human volunteer. The isolated neutrophils were then re-suspended in phosphate-buffered saline, and maximally stimulated with phorbol ester to induce the respiratory burst and production of superoxide anion. […] Astaxanthin 2E was dissolved in HPLC grade dimethylsulfoxide (DMSO; Sigma-Aldrich, St. Louis, Mo.). The disodium disuccinate derivatives XVI of astaxanthin 2E were tested separately in […] formulations: statistical mixture of stereoisomers (as for astaxanthin, above, a 1:2:1 mixture of all-E; labeled as “mixture” in all tables and figures); 3S,3'S, and 3R,3'R (optical isomers or enantiomers); and meso (mixture of identical 3S,3'R and 3'S,3R; diastereomers of the enantiomeric pair). […] The disuccinate derivatives were first tested at the appropriate final concentrations in pure aqueous solution (deionized water) from stock solutions of 10 mM. Each of the four disuccinate derivatives were then tested from stock solutions prepared in a 1:2 mixture of ethanol (final concentration of EtOH in stock solution 331⁄3%; final concentration in isolated neutrophil assay 0.3%; HPLC grade ethanol, Sigma-Aldrich, St. Louis, Mo.) at 10 mM. […] Metaphore® Pharmaceuticals, Inc., St. Louis, Mo.) were also performed. Human polymorphonuclear leukocytes (PMNs) were isolated from freshly sampled venous blood of a single volunteer by Percoll density gradient centrifugation, which yielded PMNs with a purity of >95%. Each 10 mL of whole blood was mixed with 0.8 mL of 0.1 M EDTA and 25 mL of saline. The diluted blood was layered over 9 mL of Percoll at a specific density of 1.080 g/mL. After centrifugation at 400×g for 20 min at 20° C., the plasma, mononuclear cell, and Percoll layers were removed. Erythrocytes were lysed by addition of 18 mL of ice-cold water for 30 s, followed by 2 mL of 10× PIPES buffer (25 mM PIPES, 110 mM NaCl, and 5 mM KCl, titrated to pH 7.4 with NaOH). Cells were pelleted at 4° C., the supernatant was decanted, and the procedure was repeated. After the second hypotonic lysis, cells were washed twice with PAG buffer (PIPES buffer containing 0.003% human serum albumin and 0.1% glucose). Afterward, PMNs were counted by light microscopy on a hemocytometer. The final pellet was then suspended in PAG-CM buffer (PAG buffer with 1 mM CaCl2 and 1 mM MgCl2). All EPR measurements were performed using a Bruker ER 300 EPR spectrometer operating at X-band with a TM110 cavity. The microwave frequency was measured with a Model 575 microwave counter (EIP Microwave, Inc., San Jose, Calif.). To measure O^ -2 generation from phorbol-ester (PMA)-stimulated PMNs, EPR spin-trapping studies were performed using DEPMPO (Oxis, Portland, Oreg.) at 10 mM. 1×10^6 PMNs were stimulated with PMA (1 ng/mL) and loaded into capillary tubes for EPR measurements. […]

[3] = read-out: antioxidant ED50 (protective level); cited from earlier work
[4] = human, in vivo, po, 1.1 mg/kg; cited from earlier work

CC1=C(/C=C/C(C)=C/C=C/C(C)=C/C=C/C=C(C)/C=C/C=C(C)/C=C/C2=C(C)C(=O)C(O)CC2(C)C)C(C)(C)CC(O)C1=O (stereo not drawn) [Astaxanthin 2E, Astaxanthin]
stability of the carotenoid cation radical (car.+) [1]: stable | time after which no 3car (carotenoid triplet) is left ([1]; acetonitrile, sensitizer NN): 50 μs | percent reduction of MCA-induced neoplastic transformation ([2]; 4-week treatment): complete suppression of the transformed phenotype | percent reduction of MCA-induced neoplastic transformation ([2]; 4-week treatment, listed as Non-esterified, free astaxanthin): 100% | numbers of MCA-induced transformed foci ([2]; 3×10^-6 M, 1×10^-6 M and 3×10^-7 M, 4-week treatment, vs MCA + THF control): concentration-dependent decrease | potency as inhibitor of transformation compared with previously tested carotenoids ([2]; comparison with data of Bertram, 1991 (1×10^-5 M)): far more potent inhibitor of transformation than either β-carotene or canthaxanthin | inhibition at 100 µM (superoxide anion): 28% | EC50 [3]: 200 nM | Cmax, plasma levels [4]: 1300 ng/mL
